Reference: ChEMBL document CHEMBL4334495, “Design and Biological Evaluation of m-Xylene Thioether-Stapled Short Helical Peptides Targeting the HIV-1 gp41 Hexameric Coiled-Coil Fusion Complex” (J Med Chem, 2019)
Calls of active or inactive are those of the source. The calls are words filed in the database; no cut-off is given here. Starred links: 1 amine or outer side, 2 acyl side, 3 side chain; linkers in the order of their positions; H or OH if unused. Positions of bridges follow the written chain, without caps; N, C: chain ends. Non-standard residues stand in square brackets, D forms with d. Residues, ends and D or L forms follow the SMILES beside them. ξ: configuration not given here. mXylylene = c1cc(C[*:1])cc(C[*:2])c1; ξhCys = NC(CCS)C(=O)O

Legend:
[1] = tested on: Human immunodeficiency virus 1; assay: Antiviral activity against R5 tropic HIV-1 subtype-B Bal infected in human MT2 cells or CEMx174 5.25 M7 cells assessed as reduction in p24 Gag protein production measured at 4 days post-infection by ELISA; assay type: functional, cell-based, HIV-1 group M; details: Human immunodeficiency virus 1, Bal, 96 h
[2] = target: Envelope glycoprotein gp160 (Human immunodeficiency virus 1) (UniProt Q6QLK5); assay: Binding affinity to HIV1 GP41 using GP41 NHR derived N36 peptide assessed as formation of secondary structure at 10 uM incubated for 30 mins by CD spectroscopy
[3] = target: Envelope glycoprotein gp160 (Human immunodeficiency virus 1) (UniProt Q6QLK5); assay: Binding affinity to HIV1 GP41 using GP41 NHR derived N36 peptide assessed as formation of oligomeric complex at 100 uM incubated for 30 mins by Coomassie blue R250 staining based Native-PAGE analysis
[4] = tested on: Human immunodeficiency virus 1; assay: Antiviral activity against X4 tropic HIV-1 subtype-B 3B infected in human MT2 cells or CEMx174 5.25 M7 cells assessed as reduction in p24 Gag protein production measured at 4 days post-infection by ELISA; assay type: functional, cell-based, HIV-1 group M; details: Human immunodeficiency virus 1, 3B, 96 h
[5] = target: Envelope glycoprotein gp160 (Human immunodeficiency virus 1) (UniProt Q6QLK5); assay: Binding affinity to HIV1 GP41 using GP41 NHR derived N36 peptide assessed as melting temperature at 10 uM incubated for 30 mins by CD spectroscopy
[6] = target: Envelope glycoprotein gp160 (Human immunodeficiency virus 1) (UniProt Q6QLK5); assay: Binding affinity to HIV1 GP41 using GP41 NHR derived N36 peptide assessed as molecular weight at 150 uM incubated for 30 mins by sedimentation Velocity analysis
[7] = target: Envelope glycoprotein gp160 (Human immunodeficiency virus 1) (UniProt Q6QLK5); assay: Binding affinity to HIV1 GP41 using GP41 NHR derived N36 peptide at 500 uM incubated for 30 mins by size exclusion HPLC analysis
[8] = Cytotoxicity against human TZM-bl cells assessed as reduction in viability after 2 days by XTT assay; assay type: cell-based

Envelope glycoprotein gp160 (Human immunodeficiency virus 1), sequence (Q6QLK5 1-814): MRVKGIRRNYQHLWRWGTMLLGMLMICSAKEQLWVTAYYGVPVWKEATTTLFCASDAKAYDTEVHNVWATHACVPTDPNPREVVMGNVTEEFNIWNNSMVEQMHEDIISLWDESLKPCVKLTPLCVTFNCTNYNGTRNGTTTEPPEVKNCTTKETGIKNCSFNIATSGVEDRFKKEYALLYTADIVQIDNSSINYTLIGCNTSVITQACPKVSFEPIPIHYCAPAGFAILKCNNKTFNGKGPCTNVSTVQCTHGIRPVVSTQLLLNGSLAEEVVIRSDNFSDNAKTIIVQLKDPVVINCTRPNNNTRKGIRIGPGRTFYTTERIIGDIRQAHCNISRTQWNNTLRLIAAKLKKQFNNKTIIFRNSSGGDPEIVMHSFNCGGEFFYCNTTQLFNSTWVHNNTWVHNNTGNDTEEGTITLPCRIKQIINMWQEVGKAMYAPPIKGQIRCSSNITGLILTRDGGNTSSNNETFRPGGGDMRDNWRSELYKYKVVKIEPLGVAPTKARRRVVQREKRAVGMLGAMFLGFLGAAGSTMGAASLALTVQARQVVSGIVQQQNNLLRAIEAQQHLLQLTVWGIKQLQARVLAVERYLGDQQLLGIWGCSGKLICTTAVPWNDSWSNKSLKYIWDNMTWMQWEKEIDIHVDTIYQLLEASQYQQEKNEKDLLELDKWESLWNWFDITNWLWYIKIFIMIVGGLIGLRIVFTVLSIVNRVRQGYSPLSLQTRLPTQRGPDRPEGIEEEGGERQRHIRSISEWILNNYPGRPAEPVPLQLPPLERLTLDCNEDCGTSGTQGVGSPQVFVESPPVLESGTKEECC

EC50 [1] | Activity [2] | Activity [3] | EC50 [4] | Tm [5] | Activity [6] | Activity [7] | Compound | CC50 at 48 h [8]
69.1 nM | Active | Active | 44.4 nM | 52.4 °C | 8.4 kDa | Active | CC[C@H](C)[C@H](NC(C)=O)C(=O)N[C@@H](CCC(=O)O)C(=O)N[C@@H](C)C(=O)N[C@@H](CC(C)C)C(=O)N[C@H](C(=O)NC1CCSCc2cccc(c2)CSCCC(C(=O)N[C@@H](CCC(N)=O)C(=O)N[C@@H](CCC(N)=O)C(=O)N[C@@H](CCC(=O)O)C(=O)N[C@@H](CCCCN)C(=O)N[C@@H](CC(N)=O)C(=O)N[C@@H](CCC(=O)O)C(=O)N[C@@H](C)C(=O)N[C@@H](C)C(=O)N[C@@H](CC(C)C)C(=O)N[C@@H](CCCNC(=N)N)C(=O)N[C@@H](CCC(=O)O)C(=O)N[C@@H](CC(C)C)C(N)=O)NC(=O)[C@H](CCC(N)=O)NC(=O)[C@H](C)NC(=O)[C@H](C)NC1=O)[C@@H](C)CC (stereo partly specified) (Ac-IEALI[ξhCys]AAQ[ξhCys]QQEKNEAALREL-NH2; linker 6-10 via mXylylene) | 
27.7 nM | Active | Active | 18.4 nM | 56.9 °C | 18.7 kDa | Active | CC[C@H](C)[C@H](NC(C)=O)C(=O)N[C@@H](CCC(=O)O)C(=O)N[C@@H](C)C(=O)N[C@@H](CC(C)C)C(=O)N[C@H](C(=O)NC1CCSCc2cccc(c2)CSCCC(C(=O)N[C@@H](CCC(N)=O)C(=O)N[C@@H](CCC(N)=O)C(=O)N[C@@H](CCCNC(=N)N)C(=O)N[C@@H](CCCCN)C(=O)N[C@@H](CC(N)=O)C(=O)N[C@@H](CCC(=O)O)C(=O)N[C@@H](CCC(=O)O)C(=O)N[C@@H](C)C(=O)N[C@@H](CC(C)C)C(=O)N[C@@H](CCCNC(=N)N)C(=O)N[C@@H](CCC(=O)O)C(=O)N[C@@H](CC(C)C)C(N)=O)NC(=O)[C@H](CCC(N)=O)NC(=O)[C@H](C)NC(=O)[C@H](C)NC1=O)[C@@H](C)CC (stereo partly specified) (Ac-IEALI[ξhCys]AAQ[ξhCys]QQRKNEEALREL-NH2; linker 6-10 via mXylylene) | > 800000 nM
 |  |  |  | 48.2 °C |  |  | Ac-IEALIRAAQEQQEKNEAALREL-NH2 | 
